# Assay: Henry solubility constant Hcp at 298.15 K (mol/(m3 Pa))
# Conditions: reference: Zhang and Pawliszyn (1993)
row,Structure (SMILES),Henry solubility constant Hcp
1,"Cc1ccccc1C [1,2-dimethylbenzene]",0.0027
2,"Cc1ccc(C)cc1 [1,4-dimethylbenzene]",0.0017
3,c1cc2c3c(cccc3c1)CC2 [acenaphthene],0.11
4,c1ccccc1 [benzene],0.0015
5,CCc1ccccc1 [ethylbenzene],0.0025
6,Cc1ccccc1 [methylbenzene],0.0015

# The next lines start with the values.
row,Henry solubility constant Hcp,Structure (SMILES)
1,0.11,c1ccc2cc3ccccc3cc2c1 [anthracene]
2,9.4,c1ccc2c(c1)ccc1c3ccccc3ccc21 [chrysene]
3,0.021,c1ccc2ccccc2c1 [naphthalene]
4,0.25,c1ccc2c(c1)ccc1ccccc12 [phenanthrene]
